In patent publication US20190136321A1, “USE OF TRANSLATIONAL PROFILING TO IDENTIFY TARGET MOLECULES FOR THERAPEUTIC TREATMENT” (The Regents of The University of California, priority 2013, published 2019):

Test system: Pten^L/L mice
Experiment: Pharmacological treatment of Pten^L/L mice (preclinical trial, prostate cancer)
Format: in vivo, mouse
Settings: Pten^L/L mice, RAD001 10 mg/kg daily
Method: Pten^loxp/loxp and Pb-cre mice where obtained from Jackson Laboratories and Mouse Models of Human Cancers Consortium (MMHCC), respectively, and maintained in the C57BL/6 background. Mice were maintained under specific pathogen-free conditions, and experiments were performed in compliance with institutional guidelines as approved by the Institutional Animal Care and Use Committee of UCSF.
Weight measurements were taken every 3 days to monitor for toxicity. For the 28-day study, mice were imaged via […] at day 0 and day 28 in a 14-T GE MR scanner (GE Healthcare).
Whole mouse prostates were removed from wild-type and Pten^L/L mice, microdissected, and frozen in liquid nitrogen. Frozen tissues were subsequently manually disassociated using a biopulverizer (Biospec) and additionally processed for protein and mRNA analysis as described above.
Prostates and lymph nodes were dissected from mice within 2 hr of the indicated treatment and fixed in 10% formalin overnight at 4° C. Tissues were subsequently dehydrated in ethanol (Sigma) at room temperature, mounted into paraffin blocks, and sectioned at […] Specimens were de-paraffinized and rehydrated using CitriSolv (Fisher) followed by serial ethanol washes. […] Sections were washed in distilled water followed by TBS washes. The sections were then incubated in 5% goat serum, 1% BSA in TBS for 1 hr at room temperature. Various primary antibodies were used, including those specific for keratin 5 (Covance), cytokeratin 8 (Abcam and Covance), YB1 (Abcam), vimentin (Abcam), MTA1 (Cell signaling), CD44 (BD Pharmingen), and the androgen receptor (Epitomics), which were diluted 1:50-1:500 in blocking solution and incubated on sections overnight at 4° C. Specimens were then washed in TBS and incubated with the appropriate Alexa 488 and 594 labeled secondary (Invitrogen) at 1:500 for 2 hr at room temperature, with the exception of YB1 which was incubated with biotinylated anti-rabbit secondary (Vector) followed by incubation with Alexa 594 labeled Streptavidin (Invitrogen). A final set of washes in TBS was completed at room temperature followed by mounting with DAPI Hardset Mounting Medium (Vector Lab). A Zeiss Spinning Disc confocal (Zeiss, CSU-X1) was used to image the sections at 40×-100×. Individual prostate cells were quantified for mean fluorescence intensity (m.f.i.) using the Axiovision (Zeiss, Release 4.8) densitometric tool.
Mouse lymph nodes were processed as described above and stained for CK8 and androgen receptor. Lymph nodes were imaged using a Zeiss AX10 microscope. Metastases were identified and areas were measured using the Axiovision (Zeiss, Release 4.8) measurement tool.
Immunohistochemistry was performed as described above (see “Immunofluorescence”) with the exception that immediately after antigen […] and TBS washes, specimens were incubated in 3% hydrogen peroxide in TBS followed by TBS washes. The following primary antibodies were used: phospho-AKT^S473 (Cell Signaling), phospho-rpS6^S240/244 (Cell Signaling), phospho-4EBP1^T37/46 (Cell Signaling), phospho-histone H3 (Upstate), and cleaved caspase (Cell Signaling). This was followed by TBS washes and incubation with the appropriate biotinylated secondary antibody (Vector Lab) for 30 min at room temperature. An ABC-HRP Kit (Vector Lab) was used to amplify the signal, followed by a brief incubation in hydrogen peroxide. The protein of interest was detected using DAB (Sigma). Specimens were counterstained with haematoxylin (Thermo Scientific), dehydrated with Citrisolv (Fisher), and mounted with Cytoseal XYL (Vector Lab).
Paraffin-embedded prostate specimens were deparaffinized and rehydrated as described above (see “Immunofluorescence”), stained with haematoxylin (Thermo Scientific), and washed with water. This was followed by a brief incubation in differentiation RTU (VWR) and two washes with water followed by two 70% ethanol washes. […]

`CO[C@H]1C[C@@H]2CC[C@@H](C)[C@@](O)(O2)C(=O)C(=O)N2CCCC[C@H]2C(=O)O[C@H]([C@H](C)C[C@@H]2CC[C@@H](OCCO)[C@H](OC)C2)CC(=O)[C@H](C)/C=C(\C)[C@@H](O)[C@@H](OC)C(=O)[C@H](C)C[C@H](C)/C=C/C=C/C=C/1C` [RAD001] was tested, and the “regression of PIN lesions” value (28 days) was “only partial regression” and the “proliferation (phospho-histone H3)” value (ATP site inhibitor of mTOR 1 mg/kg daily) was “limited decrease”.
